US7211246B2, “Compositions comprising oestrone-3-0-sulphamate and trail (TNF-related apoptosis inducing ligand)” (Sterix Limited, priority 2001, dated 2007)

Experiments:
[1] = test system: caspase 8; test: Western blot of caspase 8 activation in Cal51 cells; type: cell-based
Method: (§1) FIG. 3. Effect of 2-MeOE2bisMATE on caspase 8 and caspase 3 activation and PARP cleavage in Cal51 cells. Western blots showing caspase 8 and caspase 3 unprocessed and active fragments and PARP uncleaved and cleaved products following treatment of Cal51 cells with solvent, 0.05, 0.5 or 5 μM 2-MeOE2bisMATE for 48 hours.
(§2) FIG. 5. Effect of 2-MeOE2bisMATE on the timing of caspase 3 and caspase 8 activation and PARP cleavage in Cal51 cells. Western blots showing caspase 3, caspase 8 and PARP unprocessed and cleaved products at 0, 8, 16, 24 and 48 hrs following treatment of Cal51 cells with 5 μM 2-MeOE2bisMATE for 48 hrs or untreated for 48 hrs (48NT).
(§3) To determine whether caspases might play a role in cell death induced by 2-MeOE2bisMATE and other sulfamoylated oestrogen derivatives, we examined the expression of caspase 3, caspase 8 and PARP by immunoblotting (FIG. 3). […]
(§4) There are two major pathways of apoptosis; cell surface death receptors activate caspases directly via activation of caspase 8 whereas other apoptotic stimuli operate via triggering the release of cytochrome c from mitochondria which subsequently activates caspases. […] Caspase 3 activation was first detected at 16 hours and as expected was followed by PARP cleavage at 24 hours (FIG. 5). Caspase 8 activation was a relatively late event, first detected at 48 hours. […]

[2] = test system: DR5 protein; test: Western blot of DR5 protein levels in Cal51 cells; type: cell-based; settings: 48 hours, 0.05, 0.5 and 5 μM
Method: FIG. 6. […] Western blot showing DR5 protein levels following treatment of Cal51 cells for 48 hours with 0, 0.05, 0.5 and 5 μM of 2-MeOEMATE or 2-EtEMATE. PCNA levels represent corresponding loading controls.
Protein lysates were prepared from CAL51 cells treated with various compounds and analysed for expression of DR5 by immunoblotting (FIG. 6).

[3] = test system: PARP; test: Western blot of PARP cleavage in Cal51 cells; type: cell-based
Method: as §1, §2, §3, §4

[4] = test system: CAL51 cells; test: TUNEL assay of apoptosis in Cal51 cells with or without caspase inhibitor ZVAD-fmk; type: cell-based; settings: 5 μM 2-MeOE2bisMATE with 50 μM zVAD-fmk, 3 days
Method: FIG. 4. Effect of the caspase inhibitor ZVAD-fmk on 2-MeOE2bisMATE induced apoptosis in Cal51 cells. TUNEL assay showing % apoptosis of cells untreated or following treatment with 50 μM ZVAD-fmk, 5 μM 2-MeOE2bisMATE or 5 μM 2-MeOE2bisMATE and 50 μM zVAD-fmk for 3 days. Histograms are overlays for control cells stained in the absence of TdT enzyme (bold) or cells stained with TUNEL reaction mix (open).
To determine whether the activation of caspases was important for cell killing, we tested whether a broad range chemical caspase inhibitor interfered with apoptosis. Cells were treated with 2-MeOE2bisMATE in the presence and absence of the caspase inhibitor ZVAD-fmk and cell death was analysed using the TUNEL assay which measures the DNA cleavage associated with apoptosis. The induction of TUNEL positive cells by 2-MeOE2bisMATE was reduced by 60% in the presence of zVAD-fmk (FIG. 4). Therefore 2-MeOE2bisMATE requires activation of caspases for optimal induction of apoptosis.

[5] = test system: caspase 3; test: Western blot of caspase 3 activation in Cal51 cells; type: cell-based
Method: as §1, §2
FIG. 7. Effect of combined treatment of 2-EtEMATE or 2-MeOEMATE and TRAIL on caspase 3 activation in Cal51 cells. Western blots showing caspase 3 activation following treatment of Cal51 cells for 48 hours with solvent, 250 ng/ml TRAIL and 5 μM 2-EtEMATE or 2-MeOEMATE in the presence or absence of 250 ng/ml TRAIL. PCNA levels represent corresponding loading controls. 1, control; 2, THF solvent; 3, TRAIL; 4, 2-EtEMATE; 5,2-EtEMATE+TRAIL; 6, control; 7, THF solvent; 8, TRAIL; 9, 2-MeOEMATE; 10, 2-MeOEMATE+TRAIL
To determine whether caspases might play a role in cell death induced by 2-MeOE2bisMATE and other sulfamoylated oestrogen derivatives, we examined the expression of caspase 3, caspase 8 and PARP by immunoblotting (FIG. 3). […] Therefore, cell death induced by the 2-MeOE2bisMATE in Cal51 cells is associated with caspase activation.
There are two major pathways of apoptosis; cell surface death receptors activate caspases directly via activation of caspase 8 whereas other apoptotic stimuli operate via triggering the release of cytochrome c from mitochondria which subsequently activates caspases. Both pathways ultimately result in activation of caspase 3 and PARP cleavage. Since activation of caspase 8 is an indicator for the direct involvement of death receptors, it is important to determine whether activation of caspase 8 by 2-MeOE2bisMATE precedes or follows caspase 3 activation. We therefore performed time course experiments in Cal51 cells treated with 2-MeOE2bisMATE to order the activation events. Caspase 3 activation was first detected at 16 hours and as expected was followed by PARP cleavage at 24 hours (FIG. 5). Caspase 8 activation was a relatively late event, first detected at 48 hours. Therefore activation of caspase 3 induced by 2-MeOE2bisMATE precedes activation of caspase 8.
To further explore the mechanism for co-operation between sulfamoylated oestrones and TRAIL, we analysed activation of caspase 3 (FIG. 7). […] Therefore, sulfamoylated oestrones and TRAIL cooperate to activate caspase 3.

[6] = in vivo; cited from earlier work
[7] = Cal51 cells, 5 μM, time course 0-48 hrs
[8] = Cal51 cells, 0.05, 0.5 or 5 μM, 48 hours

| SMILES | time at which caspase 8 activation was first detected [1, 7] [h] | activation of caspase 8 [1, 8] | DR5 protein levels by western blot [2] | time of PARP cleavage [3, 7] [h] | PARP cleavage [3, 8] | reduction of induction of TUNEL positive cells in the presence of zVAD-fmk [4] [%] | time at which caspase 3 activation was first detected [5, 7] [h] | activation of caspase 3 [5, 8] | activation of caspase 3, synergistic effect with TRAIL ([5]; in combination with TRAIL) | half-life in blood [6] [h] |
| --- | --- | --- | --- | --- | --- | --- | --- | --- | --- | --- |
| COc1cc2c(cc1OS(N)(=O)=O)CCC1C2CCC2(C)C(OS(N)(=O)=O)CCC12 (stereo not shown) [2-MeOE2bisMATE, 2-methoxyoestrone-3-O,17-bissulphamate] | 48 | dose dependent activation | no significant change | 24 | Cleavage of PARP | 60 | 16 | dose dependent activation | increased activation of caspase 3 |  |
| C[C@]12CC[C@@H]3c4ccc(OS(=O)(=O)O)cc4CC[C@H]3[C@@H]1CCC2=O [E1S, oestrone sulphate] |  |  |  |  |  |  |  |  |  | 10 to 12 |
